# pIC50: −log10 of the molar value.
# Test system: 186277-243-T-J2-PDC complex spheroids, viability
# Experiment: Anticancer human tumor 186277-243-T-J2-PDC patient-derived colon adenocarcinoma cell line growth inhibition [RAS]
# Conditions: for pIC50: curve of first compound; for viability, T/C: stronger effect = lower value
# In short: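 Agents were tested in combination matrices in half-log decrements from a top concentration at or near clinical Cmax (10 microM if undetermined). Targets were multi-cell spheroids of tumour lines plus HUVEC and MSC stromal cells.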
# [1] = second compound 0.00316 µM, first compound 0.0316 µM
# [2] = second compound 0.00316 µM, first compound 0.1 µM
# [3] = second compound 0.00316 µM, first compound 0.316 µM
# [4] = second compound 0.00316 µM, first compound 1 µM
# [5] = second compound 0.00316 µM, first compound 3.16 µM
# [6] = second compound 0.00316 µM, first compound 10 µM
# [7] = second compound 0.01 µM, first compound 0.0316 µM
# [8] = second compound 0.01 µM, first compound 0.1 µM
# [9] = second compound 0.01 µM, first compound 0.316 µM
# [10] = second compound 0.01 µM, first compound 1 µM
# [11] = second compound 0.01 µM, first compound 3.16 µM
# [12] = second compound 0.01 µM, first compound 10 µM
# [13] = second compound 0.0316 µM, first compound 0.0316 µM
# [14] = second compound 0.0316 µM, first compound 0.1 µM
# [15] = second compound 0.0316 µM, first compound 0.316 µM
# [16] = second compound 0.0316 µM, first compound 1 µM
# [17] = second compound 0.0316 µM, first compound 3.16 µM
# [18] = second compound 0.0316 µM, first compound 10 µM
# [19] = second compound 0.1 µM, first compound 0.0316 µM
# [20] = second compound 0.1 µM, first compound 0.1 µM
# [21] = second compound 0.1 µM, first compound 0.316 µM
# [22] = second compound 0.1 µM, first compound 1 µM
# [23] = second compound 0.1 µM, first compound 3.16 µM
# [24] = second compound 0.1 µM, first compound 10 µM
# [25] = second compound 0.316 µM, first compound 0.0316 µM
# [26] = second compound 0.316 µM, first compound 0.1 µM
# [27] = second compound 0.316 µM, first compound 0.316 µM
# [28] = second compound 0.316 µM, first compound 1 µM
# [29] = second compound 0.316 µM, first compound 3.16 µM
# [30] = second compound 0.316 µM, first compound 10 µM
# [31] = second compound 1 µM, first compound 0.0316 µM
# [32] = second compound 1 µM, first compound 0.1 µM
# [33] = second compound 1 µM, first compound 0.316 µM
# [34] = second compound 1 µM, first compound 1 µM
# [35] = second compound 1 µM, first compound 3.16 µM
# [36] = second compound 1 µM, first compound 10 µM
# 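Also: spheroids exposed to compounds for 7 days before viability read.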
structure (smiles),measurement,setting,value
CC1(O)CCCC1n1c(=O)c(C(F)F)cc2cnc(NC3CCN(S(C)(=O)=O)CC3)nc21 (stereo not given) + C=CC(=O)N1CCN(c2nc(OCC3CCCN3C)nc3c(F)c(-c4nc(N)cc(C)c4C(F)(F)F)c(Cl)cc23)C(C)C1,pIC50,second compound 0.00316 µM,5.39
same,pIC50,second compound 0.01 µM,5.31
same,pIC50,second compound 0.0316 µM,5.32
same,pIC50,second compound 0.1 µM,5.29
same,pIC50,second compound 0.316 µM,5.32
same,pIC50,second compound 1 µM,5.31
same,"viability, T/C",[1],95.5%
same,"viability, T/C",[2],113%
same,"viability, T/C",[3],101%
same,"viability, T/C",[4],99.3%
same,"viability, T/C",[5],63%
same,"viability, T/C",[6],2.71%
same,"viability, T/C",[7],92.8%
same,"viability, T/C",[8],96.8%
same,"viability, T/C",[9],93.5%
same,"viability, T/C",[10],96.8%
same,"viability, T/C",[11],79.3%
same,"viability, T/C",[12],2.97%
same,"viability, T/C",[13],101%
same,"viability, T/C",[14],135%
same,"viability, T/C",[15],87.8%
same,"viability, T/C",[16],107%
same,"viability, T/C",[17],77.5%
same,"viability, T/C",[18],2.9%
same,"viability, T/C",[19],95.3%
same,"viability, T/C",[20],109%
same,"viability, T/C",[21],105%
same,"viability, T/C",[22],89.9%
same,"viability, T/C",[23],87%
same,"viability, T/C",[24],2.79%
same,"viability, T/C",[25],91.3%
same,"viability, T/C",[26],118%
same,"viability, T/C",[27],88.1%
same,"viability, T/C",[28],84.1%
same,"viability, T/C",[29],81.8%
same,"viability, T/C",[30],2%
same,"viability, T/C",[31],117%
same,"viability, T/C",[32],123%
same,"viability, T/C",[33],94.9%
same,"viability, T/C",[34],115%
same,"viability, T/C",[35],80.7%
same,"viability, T/C",[36],1.52%
CCC(CC)c1cc(NC2CCC(N)C2)n2nccc2n1 (stereo not given) + C=CC(=O)N1CCN(c2nc(OCC3CCCN3C)nc3c(F)c(-c4nc(N)cc(C)c4C(F)(F)F)c(Cl)cc23)C(C)C1,pIC50,second compound 0.00316 µM,5.73
same,pIC50,second compound 0.01 µM,5.78
same,pIC50,second compound 0.0316 µM,5.74
same,pIC50,second compound 0.1 µM,5.81
same,pIC50,second compound 0.316 µM,5.74
same,pIC50,second compound 1 µM,5.80
same,"viability, T/C",[1],91.8%
same,"viability, T/C",[2],97.2%
same,"viability, T/C",[3],89.5%
same,"viability, T/C",[4],117%
same,"viability, T/C",[5],7.95%
same,"viability, T/C",[6],0.31%
same,"viability, T/C",[7],78%
same,"viability, T/C",[8],103%
same,"viability, T/C",[9],76.2%
same,"viability, T/C",[10],84.2%
same,"viability, T/C",[11],7.63%
same,"viability, T/C",[12],0.49%
same,"viability, T/C",[13],86.4%
same,"viability, T/C",[14],93.5%
same,"viability, T/C",[15],93.8%
same,"viability, T/C",[16],115%
same,"viability, T/C",[17],5.08%
same,"viability, T/C",[18],0.32%
same,"viability, T/C",[19],93%
same,"viability, T/C",[20],102%
same,"viability, T/C",[21],77.5%
same,"viability, T/C",[22],79%
same,"viability, T/C",[23],3.18%
same,"viability, T/C",[24],0.31%
same,"viability, T/C",[25],81%
same,"viability, T/C",[26],94.3%
same,"viability, T/C",[27],117%
same,"viability, T/C",[28],109%
same,"viability, T/C",[29],2.74%
same,"viability, T/C",[30],0.35%
same,"viability, T/C",[31],102%
same,"viability, T/C",[32],91.8%
same,"viability, T/C",[33],101%
same,"viability, T/C",[34],82.9%
same,"viability, T/C",[35],2.87%
same,"viability, T/C",[36],0.37%
CCN1CCN(Cc2ccc(Nc3ncc(F)c(-c4cc(F)c5nc(C)n(C(C)C)c5c4)n3)nc2)CC1 + C=CC(=O)N1CCN(c2nc(OCC3CCCN3C)nc3c(F)c(-c4nc(N)cc(C)c4C(F)(F)F)c(Cl)cc23)C(C)C1,pIC50,second compound 0.00316 µM,< 6.00
same,pIC50,second compound 0.01 µM,< 6.00
same,pIC50,second compound 0.0316 µM,< 6.00
same,pIC50,second compound 0.1 µM,< 6.00
same,pIC50,second compound 0.316 µM,< 6.00
same,pIC50,second compound 1 µM,< 6.00
same,"viability, T/C","second compound 0.00316 µM, first compound 0.00316 µM",136%
same,"viability, T/C","second compound 0.00316 µM, first compound 0.01 µM",129%
same,"viability, T/C",[1],141%
same,"viability, T/C",[2],114%
same,"viability, T/C",[3],125%
same,"viability, T/C",[4],99.5%
same,"viability, T/C","second compound 0.01 µM, first compound 0.00316 µM",87.9%
same,"viability, T/C","second compound 0.01 µM, first compound 0.01 µM",108%
same,"viability, T/C",[7],127%
same,"viability, T/C",[8],99.7%
same,"viability, T/C",[9],121%
same,"viability, T/C",[10],92.9%
same,"viability, T/C","second compound 0.0316 µM, first compound 0.00316 µM",94.6%
same,"viability, T/C","second compound 0.0316 µM, first compound 0.01 µM",107%
same,"viability, T/C",[13],119%
same,"viability, T/C",[14],154%
same,"viability, T/C",[15],114%
same,"viability, T/C",[16],101%
same,"viability, T/C","second compound 0.1 µM, first compound 0.00316 µM",101%
same,"viability, T/C","second compound 0.1 µM, first compound 0.01 µM",112%
same,"viability, T/C",[19],142%
same,"viability, T/C",[20],149%
same,"viability, T/C",[21],138%
same,"viability, T/C",[22],79.3%
same,"viability, T/C","second compound 0.316 µM, first compound 0.00316 µM",90.3%
same,"viability, T/C","second compound 0.316 µM, first compound 0.01 µM",106%
same,"viability, T/C",[25],117%
same,"viability, T/C",[26],115%
same,"viability, T/C",[27],152%
same,"viability, T/C",[28],97.8%
same,"viability, T/C","second compound 1 µM, first compound 0.00316 µM",117%
same,"viability, T/C","second compound 1 µM, first compound 0.01 µM",112%
same,"viability, T/C",[31],122%
same,"viability, T/C",[32],140%
same,"viability, T/C",[33],135%
same,"viability, T/C",[34],105%
C[C@@H](NC(=O)c1ncnc(N)c1Cl)c1ncc(C(=O)Nc2cc(C(F)(F)F)c(Cl)cn2)s1 + C=CC(=O)N1CCN(c2nc(OCC3CCCN3C)nc3c(F)c(-c4nc(N)cc(C)c4C(F)(F)F)c(Cl)cc23)C(C)C1,pIC50,second compound 0.00316 µM,< 5.00
same,pIC50,second compound 0.01 µM,< 5.00
same,pIC50,second compound 0.0316 µM,< 5.00
same,pIC50,second compound 0.1 µM,< 5.00
same,pIC50,second compound 0.316 µM,< 5.00
same,pIC50,second compound 1 µM,< 5.00
same,"viability, T/C",[1],102%
same,"viability, T/C",[2],104%
same,"viability, T/C",[3],73.2%
same,"viability, T/C",[4],86.2%
same,"viability, T/C",[5],93.9%
same,"viability, T/C",[6],106%
same,"viability, T/C",[7],80.8%
same,"viability, T/C",[8],83.8%
same,"viability, T/C",[9],114%
same,"viability, T/C",[10],89.5%
same,"viability, T/C",[11],126%
same,"viability, T/C",[12],71.2%
same,"viability, T/C",[13],104%
same,"viability, T/C",[14],113%
same,"viability, T/C",[15],84.3%
same,"viability, T/C",[16],97.4%
same,"viability, T/C",[17],122%
same,"viability, T/C",[18],72.2%
same,"viability, T/C",[19],86.4%
same,"viability, T/C",[20],103%
same,"viability, T/C",[21],103%
same,"viability, T/C",[22],95.1%
same,"viability, T/C",[23],121%
same,"viability, T/C",[24],97.3%
same,"viability, T/C",[25],103%
same,"viability, T/C",[26],92.3%
same,"viability, T/C",[27],95.5%
same,"viability, T/C",[28],87%
same,"viability, T/C",[29],104%
same,"viability, T/C",[30],84.7%
same,"viability, T/C",[31],104%
same,"viability, T/C",[32],82%
same,"viability, T/C",[33],82.4%
same,"viability, T/C",[34],92.1%
same,"viability, T/C",[35],91.2%
same,"viability, T/C",[36],89.8%
Cc1nc(N2CCC3(CC2)COC(C)C3N)c(CO)nc1Sc1ccnc(N)c1Cl (stereo not given) + C=CC(=O)N1CCN(c2nc(OCC3CCCN3C)nc3c(F)c(-c4nc(N)cc(C)c4C(F)(F)F)c(Cl)cc23)C(C)C1,pIC50,second compound 0.00316 µM,< 5.00
same,pIC50,second compound 0.01 µM,< 5.00
same,pIC50,second compound 0.0316 µM,< 5.00
same,pIC50,second compound 0.1 µM,< 5.00
same,pIC50,second compound 0.316 µM,< 5.00
same,pIC50,second compound 1 µM,< 5.00
same,"viability, T/C",[1],102%
same,"viability, T/C",[2],102%
same,"viability, T/C",[3],127%
same,"viability, T/C",[4],108%
same,"viability, T/C",[5],116%
same,"viability, T/C",[6],78.9%
same,"viability, T/C",[7],99.8%
same,"viability, T/C",[8],101%
same,"viability, T/C",[9],94.4%
same,"viability, T/C",[10],85.2%
same,"viability, T/C",[11],89.2%
same,"viability, T/C",[12],78.7%
same,"viability, T/C",[13],86.8%
same,"viability, T/C",[14],103%
same,"viability, T/C",[15],113%
same,"viability, T/C",[16],117%
same,"viability, T/C",[17],83.2%
same,"viability, T/C",[18],80.4%
same,"viability, T/C",[19],94%
same,"viability, T/C",[20],86.6%
same,"viability, T/C",[21],91.6%
same,"viability, T/C",[22],104%
same,"viability, T/C",[23],87.7%
same,"viability, T/C",[24],87.9%
same,"viability, T/C",[25],90.6%
same,"viability, T/C",[26],93.3%
same,"viability, T/C",[27],104%
same,"viability, T/C",[28],115%
same,"viability, T/C",[29],95.7%
same,"viability, T/C",[30],75.8%
same,"viability, T/C",[31],103%
same,"viability, T/C",[32],100%
same,"viability, T/C",[33],91.8%
same,"viability, T/C",[34],99.1%
same,"viability, T/C",[35],92.6%
same,"viability, T/C",[36],83.8%

# — PubChem BioAssay AID2060908 (Molecular Pharmacology Branch, DTP, NCI, 2025)
